Reference: US8496963B2, “Oral formulations of glycyl-2-methylprolyl-glutamate” (priority 2007, dated 2013)
Where two headings read alike, the source gives them in different places. Blank lines part the entries; values can stand above or below the compound they belong to. Bridge positions count the residues as written; N and C are the ends. Square brackets hold non-standard residues; d marks the D form. Peptide text beside a SMILES is read from it. * marks the point of attachment. Ileψ(thiazoline)Cys = CC[C@H](C)[C@H](N)C1=N[C@H](C(=O)*)CS1; αMeP = C[C@@]1(C(=O)O)CCCN1; dOrn = NCCC[C@@H](N)C(=O)O

Legend:
Caco-2 cells [1] = assay type: in vitro ADME, human
Method: The purpose of these studies was to determine the effect of pH on the degradation of G-2MePE by Caco-2 cells.
100 μg/ml G-2MePE was added to the apical side of confluent cultures of Caco-2 cells in different pH conditions. Samples were taken at 0, 15, 30, 45, 60, 90, 120, 150, 180, 210, 240 min later. Samples were centrifuged at 20,000 g for 15 min and 50 μl supernatant was injected to the column of HPLC. […] Peptidolytic activity and half-life of G-2MePE were then determined in different pH condition.

Caco-2 cells [2] = assay type: in vitro ADME, human; conditions: Caco-2, pH 7.4
Method: Fresh medium was replaced every 2-3 days. Cells were cultured at 37° C. for 12-14 days for uptake assay study. The uptake assay study was commenced after cells reached confluency, i.e., after 12-14 days in culture. Each dish was washed with HEPES (pH 7.4). […] The cells were scraped off with a cell scraper into an extraction solution and centrifuged at 20,000 g for 20 min. […] The pellet was diluted by NaOH to determine the protein content by Lowry assay.

Caco-2 cells [3] = test: Cytotoxicity: sulforhodamine B (SRB) growth inhibition of Caco-2 cells; conditions: read-out: IC50 of G-2MePE, growth of Caco-2 cells
Method: (§1) The purpose of this study growth was to determine if GPE and/or G-2MePE can inhibit growth of cells.
(§2) The cells were fixed by TCA and SRB was added to each well. Cell-bound dye was extracted with Tris base buffer to solubilize the dye and the absorbance determined by a plate reader at 570 nm. Inhibition of growth was expressed as relative viability (% control) and the IC50 was calculated from the concentration-response curves after log/probit transformation.

Caco-2 cell monolayer = test: Stability of GPE and G-2MePE in the presence of Caco-2 cells; assay type: in vitro ADME, human; conditions: 50-100 μg/ml, HBSS pH 7.4, HPLC
Method: The collected samples were extracted by adding 400 μl of 0.04M sulphuric acid into test tubes, each of which contained 50 μl of a sample. The test tubes were left on ice for 5 min and vortexed. The 50 μl of 10% sodium tungstate was added to each tube and the tubes were vortexed immediately and left on ice for 10 min, vortexed again and left on ice for another 10 min. The cells were centrifuged at 20,000 g at 4° C. for 20 min. The supernatant was collected for testing. […] The protein content of samples was measured by Lowry assay.

Caco-2 cells [4] = tested on: Caco-2 cells
Method: as §1, §2

in vitro = conditions: human, Caco-2
Method: as §1, §2

[5] = tested on: Caco-2 epithelial cell layer; test: Permeability of fluorescein and TEER across Caco-2 cells with permeation enhancers; assay type: in vitro ADME, human
Method: The purpose of this study was to determine the appearance permeation coefficient (Papp) and transepithelial electrical resistance (TEER) across confluent cultures of Caco-2 epithelial cells caused by a typical hydrophilic material.
Integrity of Caco-2 cell cultures was assessed by measuring the TEER and the leakage of ^14C-mannitol or fluorescein across confluent cultures. Inserts with confluent cell cultures and an electrical resistance of greater than 300 Ω/cm^2, were considered appropriate for these studies. Fluorescein or 0.5 μCi/50 μl of ^14C-mannitol was added to the apical cell and incubated for 1-4 hours. The acceptable leakage was considered to be <0.5-1%. 6 inserts with good integrity were chosen and then washed with transport buffer. The medium from all apical and basolateral wells was removed. The cell cultures were washed twice with warm 37° C. transport buffer.
The solution on the transwell receptor side was then replaced with 0.4 ml of fresh HBSS, and we collected 0.1 ml from the donor side (then replaced with 0.1 ml sodium fluorescein at the same concentration). The reaction was terminated from donor side by adding the same volume HCl (0.2M) or by 3:1 Acetonitril/methonal with 2% acetic acid to each sample. […] Supernatants were collected, dried by Speed Vacuum, diluted with mobile phase and the resulting sample was analysed by spectrofluorophotometer. The apparent permeability coefficient was used to compare the permeability between control and treatment groups (FIG. 4). Transepithelial electric resistance (TEER) was measured using a Millipore voltage meter at different time points.

[6] = tested on: Caco-2 epithelial membrane; test: Permeability of G-2MePE and TEER across Caco-2 cells with permeation enhancers; assay type: in vitro ADME, human
Method: The purpose of this study was to determine if permeability enhancers can increase transport of G-2MePE across Caco-2 cell layers.
G-2MePE was added in three or six replicates to the donor sides of Transwells containing Caco-2 cells in the absence or presence of various permeation enhancers (FIG. 4), 1.5 ml transport buffer was added to the receptor side. The Transwells were then left to incubate. […] After each sample was taken, 0.4 ml of fresh HBSS buffer was added to the side of the Transwell from which sample was taken. Subsequently, 0.1 ml donor solution was collected to measure the concentration of the intact G-2MePE. Following each sampling, 0.1 ml of G-2MePE at the same concentration was replaced.
Peptidolysis was terminated by adding the same volume of HCl (0.2M) to each sample. […] Supernatants were collected, dried by Speed Vacuum, diluted with mobile phase and analysed by spectrofluorophotometer. […] Transepthelial electric resistance (TEER) was measured using a Millipore voltage meter at different time points.

Structure (SMILES): C[C@@]1(C(=O)N[C@@H](CCC(=O)O)C(=O)O)CCCN1C(=O)CN [Formulation G-2MePE, Glycyl-2-Methylprolyl Glutamate] (H-Gly-[αMeP]-Glu-OH)
pH at which G-2MePE is stable (Caco-2 cells [1]; Caco-2): ≤ 5.5 | degradation in basic conditions (Caco-2 cells [1]; Caco-2, pH 7): Moderate degradation | uptake of G-2MePE by Caco-2 cells (Caco-2 cells [2]): 1.3% | IC50 (Caco-2 cells [3]; 24 hours): 4640 µM | IC50 (Caco-2 cells [3]; 48 hours): 3660 µM | IC50 (Caco-2 cells [3]; 72 hours): 2240 µM | IC50 (Caco-2 cells [3]; 96 hours): 1090 µM | IC50 (Caco-2 cells [3]; 120 hours): 1010 µM

metabolites identified in the presence of Caco-2 cells (Caco-2 cell monolayer): Four | IC50 (Caco-2 cells [4]): ≥ 15000 µM | inhibition at 15 mM (in vitro): 35%
Structure (SMILES): NCC(=O)N1CCC[C@H]1C(=O)N[C@@H](CCC(=O)O)C(=O)O [GPE, glycyl-prolyl-glutarnate]

Structure (SMILES): CCCCCCCCCC(=O)[O-].[Na+] [Sodium caprate]
relative effect on fluorescein permeability ([5]; 20 mM caprate vs 20 mM taurocholate): greater than the effect of the same concentration of taurocholate | TEER of Caco-2 cell layer ([5]; fluorescein transport experiment, 3 h, sodium caprate 10 or 20 mM, taurocholate 30 mM, EDTA 40 mM, SDA 1 mM): reduced the TEER | permeability of the Caco-2 epithelial cell layer to fluorescein ([5]; sodium caprate 10 or 20 mM, taurocholate 30 mM, EDTA 40 mM, SDA 1 mM, 3 h): significantly (P<0.05) increased | permeability of the Caco-2 epithelial membrane to G-2MePE ([6]; EDTA 30 mM, sodium caprate 20 mM, taurocholate 20 and 30 mM, citric acid 30 mM, bacitracin 3.5 mM): significantly increased | TEER of Caco-2 cell layer ([6]; G-2MePE transport, EDTA 30 mM, sodium caprate 20 mM, taurocholate 20 & 30 mM, citric acid 30 mM): significantly reduced

permeability of the Caco-2 epithelial membrane to G-2MePE ([6]; Caco-2): significantly increased
Structure (SMILES): CC[C@H](C)[C@H](N)C1=N[C@H](C(=O)N[C@@H](CC(C)C)C(=O)N[C@H](CCC(=O)O)C(=O)N[C@H](C(=O)N[C@H]2CCCCNC(=O)[C@H](CC(N)=O)NC(=O)[C@@H](CC(=O)O)NC(=O)[C@H](Cc3cnc[nH]3)NC(=O)[C@@H](Cc3ccccc3)NC(=O)[C@H]([C@@H](C)CC)NC(=O)[C@@H](CCCN)NC2=O)[C@@H](C)CC)CS1 [bacitracin] ({Ileψ(thiazoline)Cys}-L[dE]IK[dOrn]I[dF]H[dD]N; lactam 4-C)
